Paper PMC8389907 (Journal of Medicinal Chemistry, 2021)
Like-named read-outs stand apart in the source and are kept apart here.

Assays:
MCF7 cells = assay: MTT cell viability assay, MCF7; format: cell-based; conditions: Homo sapiens
Protocol: (§1) The cell lines DU145 (HTB-81, human prostate carcinoma), PC3 (CRL-1435, human prostate adenocarcinoma), MCF7 (HTB-22, human breast adenocarcinoma), MDA-MB231 (HTB-26, human breast adenocarcinoma), and HCT116 (CCL-247, human colorectal carcinoma) were obtained from ATCC (American Type Culture Collection, Manassas, VA, USA); WH1 human fibroblasts were kindly provided by Dr. Guven.[51] All the cells were maintained under standard culture conditions (37 °C; 5% CO2) in the RMPI1640 medium (PC3, MCF7, and MDA-MB231 cells), while DU145 and HCT116 cells were in the DMEM and Iscove’s medium (WH1 cells) supplemented with 10% fetal calf serum, 1% glutamine, and 1% antibiotics mixture; for HCT116 and DU145 cells, 1% sodium pyruvate and 1% non-essential amino acids were also added to the culture medium.
(§2) The 3-(4,5-dimethylthiazol-2-yl)-2,5-diphenyltetrazolium bromide (MTT) assay was performed on all the cell lines tested as previously described[52] with minor modifications. Briefly, according to the growth profiles previously defined for each cell line, adequate numbers of cells were plated in each well of a 96-well plate in 0.1 mL of complete culture medium. Cells were allowed to attach for 24 h before the treatment at 37 °C for 72 h with the compounds at concentrations ranging between 0.1 and 75 μM, bringing the final volume to 0.2 mL/well. Each experiment included eight replications per concentration tested; control samples were run with 0.2% DMSO. At the end of the incubation period, MTT (0.05 mL of a 2 mg/mL stock solution in PBS) was added to each well for 3 h at 37 °C. Cell supernatants were then carefully removed, the blue formazan crystals formed through MTT reduction by metabolically active cells were dissolved in 0.120 mL of DMSO, and the corresponding optical densities were measured at 570 nm using a Universal Microplate Reader EL800 (Bio-Tek, Winooski, VT).
(§3) IC50 values were estimated from the resulting concentration–response curves by nonlinear regression analysis using GraphPad Prism software, v. 5.0 (GraphPad, San Diego, CA, USA). Differences between IC50 values were evaluated statistically by analysis of variance with a Bonferroni post-test for multiple comparisons.

HCT116 cells = assay: MTT cell viability assay, HCT116; format: cell-based; conditions: Homo sapiens, HCT-116
Protocol: as §1, §2, §3

PC3 cells [1] = assay: MTT cell viability assay, PC3; format: cell-based; conditions: Homo sapiens, PC-3
Protocol: as §1, §2, §3

HBL100 cells = assay: MTT cell viability assay, non-tumorigenic HBL100; format: cell-based; conditions: Homo sapiens, HBL-100, 72 h treatment
Protocol: as §2, §3

MCF7/ADR cells = assay: MTT cell viability assay, DOX-resistant MCF7/ADR; format: cell-based, human; conditions: for IC50: Homo sapiens, NCI/ADR-RES, 72 h treatment, MTT; for R.I. (resistance index): MCF7/ADR vs MCF7
Protocol: as §2, §3

MDA-MB231 cells = assay: MTT cell viability assay, MDA-MB231; format: cell-based; conditions: Homo sapiens, MDA-MB-231
Protocol: as §1, §2, §3

WH1 human fibroblasts = assay: MTT cell viability assay, WH1 fibroblasts; format: cell-based; conditions: Fibroblast, 72 h treatment
Protocol: as §1, §2, §3

DU145 cells [2] = assay: MTT cell viability assay, DU145; format: cell-based; conditions: Homo sapiens, DU-145
Protocol: as §1, §2, §3

PC3 cells [3] = assay: MTT assay with 1 h irradiation, PC3; format: cell-based, human; conditions: 24 h treatment, 1 h white or blue light, 48 h drug-free medium
Protocol: (§4) To evaluate the contribution of NO release on cell viability, the MTT assay was performed on DU145 and PC3 cells following treatment with 7b and 7c with 1 h irradiation and 48 h incubation in a drug-free medium.
as §3

DU145 cells [4] = assay: MTT assay with 1 h irradiation, DU145; format: cell-based, human; conditions: 24 h treatment, 1 h white or blue light, 48 h drug-free medium
Protocol: as §4, §3

[5] = 72 h treatment, MTT, read-out: IC50 MCF7
[6] = supplement csv, unit inferred, read-out: HCT116 IC50
[7] = supplement csv, unit inferred, read-out: PC3 IC50
[8] = supplement csv, unit inferred, read-out: MDA-MB231 IC50
[9] = supplement csv, unit inferred, read-out: DU145 IC50
[10] = 72 h treatment, MTT, read-out: IC50 MDA-MB231
[11] = 72 h treatment, MTT, read-out: IC50 DU145

Compound | melting point [°C] | IC50 (MCF7 cells; [5]) [µM] | IC50 (HCT116 cells; [6]) [µM] | IC50 (PC3 cells [1]; [7]) [µM] | IC50 (HBL100 cells) [µM] | IC50 (MCF7/ADR cells) [µM] | R.I. (resistance index) (MCF7/ADR cells) | IC50 (MDA-MB231 cells; [8]) [µM] | IC50 (WH1 human fibroblasts) [µM] | IC50 (DU145 cells [2]; [9]) [µM] | IC50 (MCF7 cells; supplement csv, unit inferred, read-out: MCF7 IC50) [µM] | IC50 (PC3 cells [1]; 72 h treatment, MTT, read-out: IC50 PC3) [µM] | IC50 (MDA-MB231 cells; [10]) [µM] | IC50 (DU145 cells [2]; [11]) [µM] | IC50 (HCT116 cells; 72 h treatment, MTT, read-out: IC50 HCT116) [µM] | IC50, irradiated vs kept in the dark, PC3 (PC3 cells [3]) | IC50, irradiated vs kept in the dark, DU145 (DU145 cells [4])
O=C(O)c1cn(C2CC2)c2cc(N3CCN(c4ccc([N+](=O)[O-])c(C(F)(F)F)c4)CC3)c(F)cc2c1=O [Compound 1a, 1-Cyclopropyl-6-fluoro-7-(4-(4-nitro-3-(trifluoromethyl)phenyl)piperazin-1-yl)-4-oxo-1,4-dihydroquinoline-3-carboxylic Acid] | 296 to 298 | 8.8 ± 1.59 | 9.67 ± 0.36 | 6.45 ± 0.19 | 7.79 ± 0.66 | 8.72 ± 1.25 | 1.0 | 8.06 ± 1.05 | 9.17 ± 0.6 | 7.78 ± 1.52 |  |  |  |  |  |  | 
CCn1cc(C(=O)O)c(=O)c2cc(F)c(N3CCN(c4ccc([N+](=O)[O-])c(C(F)(F)F)c4)CC3)cc21 [Compound 1b, 1-Ethyl-6-fluoro-7-(4-(4-nitro-3-(trifluoromethyl)phenyl)piperazin-1-yl)-4-oxo-1,4-dihydroquinoline-3-carboxylic Acid] | 310 to 312 |  | 10.4 ± 1.5 | 3.07 ± 0.64 | 9.26 ± 1.79 | 5.63 | 1.1 | 6.93 ± 0.85 | 5.35 ± 1.14 | 2.85 ± 0.01 | 5.24 ± 0.7 |  |  |  |  |  | 
COC(=O)c1cn(C2CC2)c2cc(N3CCN(c4ccc([N+](=O)[O-])c(C(F)(F)F)c4)CC3)c(F)cc2c1=O [Compound 3a, Methyl 1-Cyclopropyl-6-fluoro-7-(4-(4-nitro-3-(trifluoromethyl)phenyl)piperazin-1-yl)-4-oxo-1,4-dihydroquinoline-3-carboxylate] | 265 to 267 | 15.5 ± 1.2 | 6.93 ± 1.53 | 15.9 ± 0.5 | 10.6 ± 2.4 | 19.6 ± 3.2 | 1.3 | 10.7 ± 1.9 | 8.38 ± 1.2 | 5.67 ± 0.06 |  |  |  |  |  |  | 
CCn1cc(C(=O)OC)c(=O)c2cc(F)c(N3CCN(c4ccc([N+](=O)[O-])c(C(F)(F)F)c4)CC3)cc21 [Compound 3b, Methyl 1-Ethyl-6-fluoro-7-(4-(4-nitro-3-(trifluoromethyl)phenyl)piperazin-1-yl)-4-oxo-1,4-dihydroquinoline-3-carboxylate] | 236 to 238 | 11.7 ± 1.4 | 9.73 ± 2.25 | 15.3 ± 1.2 | 12 ± 1.7 | 15 ± 2.1 | 1.3 | 10.2 ± 3.1 | 9 ± 1.91 | 6.06 ± 0.51 |  |  |  |  |  |  | 
COC(=O)c1cn(C2CC2)c2cc(N3CCN(CCNc4ccc([N+](=O)[O-])c(C(F)(F)F)c4)CC3)c(F)cc2c1=O [Compound 6a, Methyl 1-Cyclopropyl-6-fluoro-7-(4-(2-((4-nitro-3-(trifluoromethyl)phenyl)amino)ethyl)piperazin-1-yl)-4-oxo-1,4-dihydroquinoline-3-carboxylate] | 231 to 233 | 16.8 ± 2.4 | 15.7 ± 2 | 6.72 ± 0.35 | 9.76 ± 0.9 | 15.1 ± 2.3 | 0.9 | 16.1 ± 2.1 | 10.5 ± 2.5 | 4.8 ± 0.96 |  |  |  |  |  |  | 
COC(=O)c1cn(C2CC2)c2cc(N3CCN(CCCNc4ccc([N+](=O)[O-])c(C(F)(F)F)c4)CC3)c(F)cc2c1=O [Compound 6b, Methyl 1-Cyclopropyl-6-fluoro-7-(4-(3-((4-nitro-3-(trifluoromethyl)phenyl)amino)propyl)piperazin-1-yl)-4-oxo-1,4-dihydroquinoline-3-carboxylate] | 202 to 204 | 12.1 ± 1.1 | 5.21 ± 0.73 | 3.17 ± 0.47 | 12.2 ± 2 | 18.76 ± 0.1 | 1.5 | 3.76 ± 0.94 | 13.2 ± 3.4 | 14 ± 1.4 |  |  |  |  |  |  | 
CCn1cc(C(=O)OC)c(=O)c2cc(F)c(N3CCN(CCNc4ccc([N+](=O)[O-])c(C(F)(F)F)c4)CC3)cc21 [Compound 6c, Methyl 1-Ethyl-6-fluoro-7-(4-(2-((4-nitro-3-(trifluoromethyl)phenyl)amino)ethyl)piperazin-1-yl)-4-oxo-1,4-dihydroquinoline-3-carboxylate] | 245 to 247 | 15.04 ± 0.1 | 12.4 ± 2.9 | 9.26 ± 1.29 | 10.8 ± 0.6 | 17.2 ± 1 | 1.1 | 11.9 ± 1 | 10.6 ± 1.9 | 4.77 ± 0.99 |  |  |  |  |  |  | 
CCn1cc(C(=O)OC)c(=O)c2cc(F)c(N3CCN(CCCNc4ccc([N+](=O)[O-])c(C(F)(F)F)c4)CC3)cc21 [Compound 6d, Methyl 1-Ethyl-6-fluoro-7-(4-(3-((4-nitro-3-(trifluoromethyl)phenyl)amino)propyl)piperazin-1-yl)-4-oxo-1,4-dihydroquinoline-3-carboxylate] | 216 to 218 | 10.5 ± 1.2 | 11.7 ± 2.1 | 4.1 ± 0.61 | 3.68 ± 0.2 | 28 ± 1.1 | 2.7 | 8.89 ± 1.65 | 9.67 ± 1.65 | 5.49 ± 0.97 |  |  |  |  |  |  | 
O=C(O)c1cn(C2CC2)c2cc(N3CCN(CCNc4ccc([N+](=O)[O-])c(C(F)(F)F)c4)CC3)c(F)cc2c1=O [Compound 7a, 1-Cyclopropyl-6-fluoro-7-(4-(2-((4-nitro-3-(trifluoromethyl)phenyl)amino)ethyl)piperazin-1-yl)-4-oxo-1,4-dihydroquinoline-3-carboxylic Acid] |  | 3.12 ± 0.62 | 5.29 ± 0.72 | 2.48 ± 0.42 | 9.14 ± 0.44 | 14.7 ± 4.2 | 4.7 | 2.24 ± 0.18 | 5.7 ± 0.92 | 2.56 ± 0.21 |  | < 3 | < 2.5 | < 3 |  |  | 
O=C(O)c1cn(C2CC2)c2cc(N3CCN(CCCNc4ccc([N+](=O)[O-])c(C(F)(F)F)c4)CC3)c(F)cc2c1=O [Compound 7b, 1-Cyclopropyl-6-fluoro-7-(4-(3-((4-nitro-3-(trifluoromethyl)phenyl)amino)propyl)piperazin-1-yl)-4-oxo-1,4-dihydroquinoline-3-carboxylic Acid] |  | 5.23 ± 0.82 |  | 3.02 ± 0.59 | 9.19 ± 0.66 | 23.6 ± 3.6 | 4.5 | 2.51 ± 0.43 | 7.05 ± 1.2 | 2.42 ± 0.9 |  |  | < 2.5 | < 3 | 1.83 | no differences in IC50 values | no differences in IC50 values
CCn1cc(C(=O)O)c(=O)c2cc(F)c(N3CCN(CCCNc4ccc([N+](=O)[O-])c(C(F)(F)F)c4)CC3)cc21 [Compound 7d, 1-Ethyl-6-fluoro-7-(4-(3-((4-nitro-3-(trifluoromethyl)phenyl)amino)propyl)piperazin-1-yl)-4-oxo-1,4-dihydroquinoline-3-carboxylic Acid] |  | 5.83 ± 0.82 | 5.36 ± 0.65 | 4.83 ± 1.15 | 10.4 ± 0.9 | 20 ± 0.3 | 3.4 | 3.64 ± 0.63 | 8.94 ± 0.91 |  |  |  |  | 1.56 |  |  | 
COc1cccc2c1C(=O)c1c(O)c3c(c(O)c1C2=O)C[C@@](O)(C(=O)CO)C[C@@H]3O[C@H]1C[C@H](N)[C@H](O)[C@H](C)O1 [DOX, doxorubicin, reference compound] |  |  |  |  |  | 66.9 ± 2.56 |  |  |  |  |  |  |  |  |  |  | 
